Consider three compounds from patent US20060115863A1, “Inositol phosphate detection assays” (AstraZeneca AB, priority 2002, published 2006).

The target in test [1] is human neurokinin NK1 receptors (Homo sapiens, UniProt P25103). The experiment in a line: NK1-mediated PI hydrolysis measured with Zr4+-SPA beads (IMAC-SPA). In kind it is cell-based.
Experimental: CHO cells stably expressing human neurokiuin NK1 receptors were maintained in 5% CO2 and at 37° C. in Ham's F12 medium supplemented with 10% fetal bovine serum (FBS) and 0.5 mg/ml G418. For experiments, the cells were plated onto 96-well plates in inositol-free DMEM medium containing 10% FBS and 5 μCi/ml [3 H]inositol (0.5 μCi/well). After 16-48 hr incubation, the medium was removed and the cells were incubated for 15 min with or without NK1 antagonist in phosphate-free lithium-containing Hanks solution (PFLH) (composition: 20 mM HEPES, pH 7.4, 1.25 mM MgCl2, 1.25 mM CaCl2, 5 mM KCl, 125 mM NaCl, 10 mM LiCl and 10 mM glucose). […] At the end of the incubation, the agonist solution was removed and 100 μl ice-cold 20 mM formic acid solution (pH3.0) containing 2 mM myo-inositol was added in each well to release inositol phosphates from the cells. After incubation at 4° C. for over 10 min, the samples were transferred to a white opaque plate, and 100 μl of metal ion loaded IMAC-SPA beads added to each well. Alternatively, IMAC-SPA beads could be added directly to the cell plate to eliminate the sample transfer step. The amount of [^3H] inositol phosphates generated in the cells was then determined by measurement of the radioactivity on the SPA beads on TopCount® NXT®. […]
The subject of a further test is PDGF receptor. Briefly: PDGF receptor-mediated PI hydrolysis in quiescent Swiss 3T3 cells measured with Zr4+-SPA beads. In kind it is cell-based. The procedure: Swiss 3 T 3 cells were maintained in DMEM medium supplemented with 10% heat-inactivated calf serum. For PI hydrolysis assay, the cells were grown in 96-well plates in [^3H]inositol-containing medium for 16-48 hr, then deprived of serum for 24 hr. The cells were stimulated with PDGF-BB for 45-60 min and the inositol phosphate accumulated in the cells was measured by IMAC-SPA in the same way as described for NK1 receptors.
The PDGF receptor belongs to the superfamily of tyrosine kinase-linked growth factor receptors. Stimulation of the PDGF receptor leads to activation of PLC-y through Ras-related GTPase (Ji et al., 1999, Mol. Cell. Biol., 1999. 19:49614970; Wang et al., 1998, Mol. Cell. Biol., 18:590-597; Heldin et al., 1998, Biochim. Biophys. Acta, 1378:F79-113; Stice et al., 1999, Front. Biosci., 4:D72-86).

Sequence of human neurokinin NK1 receptors (P25103 whole entry): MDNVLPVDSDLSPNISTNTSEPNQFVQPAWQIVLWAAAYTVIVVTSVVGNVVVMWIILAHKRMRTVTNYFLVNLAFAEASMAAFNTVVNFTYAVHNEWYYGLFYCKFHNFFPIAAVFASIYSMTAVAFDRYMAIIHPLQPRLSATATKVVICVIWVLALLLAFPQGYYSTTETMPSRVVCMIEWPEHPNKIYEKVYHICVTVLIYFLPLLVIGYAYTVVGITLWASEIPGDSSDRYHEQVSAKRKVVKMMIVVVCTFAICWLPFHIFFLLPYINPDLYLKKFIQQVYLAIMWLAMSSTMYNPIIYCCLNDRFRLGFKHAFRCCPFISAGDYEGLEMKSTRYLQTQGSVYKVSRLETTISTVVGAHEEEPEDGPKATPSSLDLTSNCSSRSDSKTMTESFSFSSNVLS

As to `FC(F)(F)c1cc(CO[C@H]2CCCN[C@H]2c2ccccc2)cc(C(F)(F)F)c1` [L-733060], the “inhibition of PI hydrolysis induced by Substance P (mode)” value in test [1] (NK1 CHO cells, shifted the concentration-response curve to the right) is reported as “inhibited competitively”. As for “PDGF-BB: Human recombinant platelet-derived growth factor (PDGF-BB) from Calbiochem”, in the test with PDGF receptor, the “EC50 of stimulation of PI hydrolysis” value is 3.0 ng/mL and the “maximal increase in inositol phosphate production” value is on record as 5 fold.

Substance P: the “increase in signal ([3H]inositol phosphate) over the control” value in test [1] (0.1 μM, CHO cells expressing NK1 receptor, Zr4+-loaded SPA beads, saline control) was 12 fold.
